Test results published in ChEMBL document CHEMBL5543128, “Recent Discovery and Development of Inhibitors that Target CDK9 and Their Therapeutic Indications” (J Med Chem, 2024).
Each block holds one compound with its values, some of them ahead of it.

Experiments:
MV4-11 [1] = assay: Cytotoxicity against human MV4-11 cells assessed as cell growth reduction measured for 48 hrs by MTT assay; assay type: functional
[2] = target: T1, Protein cereblon/Cyclin-dependent kinase 9 (Homo sapiens) (UniProt P50750+Q96SW2); assay: PROTAC activity at CRBN/CDK9 in human MV4-11 cells assessed as maximal degradation of CDK9 at 10 uM measured for 6 hrs by Western blot analysis; assay type: cell-based
T1 sequence (P50750 whole entry, looked up): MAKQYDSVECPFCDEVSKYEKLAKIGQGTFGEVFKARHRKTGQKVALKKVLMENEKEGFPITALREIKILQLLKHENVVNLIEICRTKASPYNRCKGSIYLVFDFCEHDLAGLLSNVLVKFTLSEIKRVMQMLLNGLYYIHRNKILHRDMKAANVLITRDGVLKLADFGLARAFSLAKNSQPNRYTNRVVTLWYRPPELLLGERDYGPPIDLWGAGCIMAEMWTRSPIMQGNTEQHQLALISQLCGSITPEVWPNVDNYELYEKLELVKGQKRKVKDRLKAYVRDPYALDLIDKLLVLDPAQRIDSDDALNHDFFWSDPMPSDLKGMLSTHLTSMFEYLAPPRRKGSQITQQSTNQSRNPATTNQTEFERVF
T1 sequence (Q96SW2 whole entry, looked up): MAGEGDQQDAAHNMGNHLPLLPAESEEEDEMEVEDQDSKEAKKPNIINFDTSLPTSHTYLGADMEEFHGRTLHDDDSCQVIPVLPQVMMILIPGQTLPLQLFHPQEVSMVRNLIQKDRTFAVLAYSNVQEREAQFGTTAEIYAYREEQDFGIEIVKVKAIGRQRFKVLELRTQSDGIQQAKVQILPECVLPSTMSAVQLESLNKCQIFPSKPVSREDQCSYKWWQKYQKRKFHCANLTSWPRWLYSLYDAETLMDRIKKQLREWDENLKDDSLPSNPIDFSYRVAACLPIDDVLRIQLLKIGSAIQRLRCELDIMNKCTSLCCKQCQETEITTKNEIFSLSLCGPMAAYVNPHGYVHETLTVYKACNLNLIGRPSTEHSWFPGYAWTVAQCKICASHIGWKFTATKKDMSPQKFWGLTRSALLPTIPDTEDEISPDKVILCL

[3] = target: T1, Protein cereblon/Cyclin-dependent kinase 9 (Homo sapiens); assay: PROTAC activity at CRBN/CDK9 in human MV4-11 cells assessed as maximal degradation of CDK9 at 20 uM measured for 6 hrs by Western blot analysis; assay type: cell-based
[4] = target: Cyclin-dependent kinase 5 (Homo sapiens, UniProt Q00535)
Sequence of Cyclin-dependent kinase 5 (Q00535 whole entry): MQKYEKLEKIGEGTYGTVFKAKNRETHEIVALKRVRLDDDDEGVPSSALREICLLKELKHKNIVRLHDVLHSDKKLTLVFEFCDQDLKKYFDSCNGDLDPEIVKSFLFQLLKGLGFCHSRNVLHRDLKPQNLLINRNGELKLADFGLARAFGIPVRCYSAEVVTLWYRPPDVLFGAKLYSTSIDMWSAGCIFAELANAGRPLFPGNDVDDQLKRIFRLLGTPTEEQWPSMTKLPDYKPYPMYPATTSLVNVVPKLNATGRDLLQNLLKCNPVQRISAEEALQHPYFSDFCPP

[5] = target: T2, Cyclin-dependent kinase 9 (Homo sapiens, UniProt P50750); assay: Inhibition of CDK9 (unknown origin)
T2 sequence (P50750 whole entry): as the sequence (P50750 whole entry, looked up) above

OCI-AML-3 = assay: Antiproliferative activity against human OCI-AML-3 assessed as reduction in cell viability incubated for 48 hrs by CellTiter-Glo cell vaibility assay; assay type: functional, cell-based; conditions: OCI-AML-3, 48 h
[6] = target: T2, Cyclin-dependent kinase 9; assay: Binding affinity to CDK9 (unknown origin) assessed as dissociation constant
[7] = target: Casein kinase I isoform alpha (Homo sapiens, UniProt P48729); assay: Binding affinity to CK1alpha (unknown origin) assessed as dissociation constant
Sequence of Casein kinase I isoform alpha (P48729 whole entry, canonical isoform): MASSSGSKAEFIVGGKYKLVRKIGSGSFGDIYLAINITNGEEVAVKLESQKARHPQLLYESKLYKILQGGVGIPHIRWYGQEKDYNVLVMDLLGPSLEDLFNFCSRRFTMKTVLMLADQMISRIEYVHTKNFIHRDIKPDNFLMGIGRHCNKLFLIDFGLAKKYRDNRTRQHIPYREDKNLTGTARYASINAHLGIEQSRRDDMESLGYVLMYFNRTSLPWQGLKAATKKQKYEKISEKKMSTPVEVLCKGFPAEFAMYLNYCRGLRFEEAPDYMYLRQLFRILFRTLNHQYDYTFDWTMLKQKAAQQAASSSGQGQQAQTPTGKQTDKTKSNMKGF

[8] = Inhibition of CDK2/CYCA (unknown origin); parameters: species or system Homo sapiens
[9] = target: Cyclin-dependent kinase 4 (Homo sapiens, UniProt P11802); assay: Inhibition of CDK4 (unknown origin)
Sequence of Cyclin-dependent kinase 4 (P11802 whole entry): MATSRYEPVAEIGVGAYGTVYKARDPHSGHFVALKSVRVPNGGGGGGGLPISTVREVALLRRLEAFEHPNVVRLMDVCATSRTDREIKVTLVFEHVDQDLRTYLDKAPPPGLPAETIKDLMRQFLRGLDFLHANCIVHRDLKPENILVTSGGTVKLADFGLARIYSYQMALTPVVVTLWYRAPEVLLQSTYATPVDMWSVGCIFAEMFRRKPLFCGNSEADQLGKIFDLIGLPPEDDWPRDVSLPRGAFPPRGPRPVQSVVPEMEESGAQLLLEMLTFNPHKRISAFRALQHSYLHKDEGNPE

L02 = assay: Antiproliferative activity against human L02 cells assessed as reduction in cell viability incubated for 72 hrs by MTT assay; assay type: functional, cell-based; conditions: L02, 72 h
[10] = Cytotoxicity against human HEK293T cells assessed as reduction in cell viability incubated for 72 hrs by MTT assay; assay type: toxicity, cell-based, HEK-293T
CDK9/cyclin T1 [11] = target: T3, CDK9/cyclin T1 (Homo sapiens, UniProt P50750); assay: Inhibition of CDK9/cyclin T1 (unknown origin); assay type: protein-complex assay
T3 sequence (O60563 whole entry): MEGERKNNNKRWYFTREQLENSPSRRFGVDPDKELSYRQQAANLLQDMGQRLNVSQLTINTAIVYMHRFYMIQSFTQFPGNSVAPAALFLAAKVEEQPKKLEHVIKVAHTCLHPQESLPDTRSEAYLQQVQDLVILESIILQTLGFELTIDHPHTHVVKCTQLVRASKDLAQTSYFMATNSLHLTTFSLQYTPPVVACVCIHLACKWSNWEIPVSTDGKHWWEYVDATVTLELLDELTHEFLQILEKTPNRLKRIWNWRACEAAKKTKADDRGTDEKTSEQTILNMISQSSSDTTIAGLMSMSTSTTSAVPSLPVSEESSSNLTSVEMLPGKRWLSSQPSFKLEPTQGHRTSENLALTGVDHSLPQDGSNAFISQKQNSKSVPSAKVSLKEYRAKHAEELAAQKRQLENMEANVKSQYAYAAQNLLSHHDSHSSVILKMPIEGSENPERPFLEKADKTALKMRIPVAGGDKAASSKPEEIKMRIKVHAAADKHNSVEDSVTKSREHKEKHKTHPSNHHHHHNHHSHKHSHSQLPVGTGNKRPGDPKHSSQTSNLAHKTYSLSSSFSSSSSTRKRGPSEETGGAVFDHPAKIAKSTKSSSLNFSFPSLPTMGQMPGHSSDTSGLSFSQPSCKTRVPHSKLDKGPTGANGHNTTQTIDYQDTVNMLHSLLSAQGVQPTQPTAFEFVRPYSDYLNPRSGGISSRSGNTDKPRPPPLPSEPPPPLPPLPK
T3 sequence (P50750 whole entry): as the sequence (P50750 whole entry, looked up) above

A498 = assay: Antiproliferative activity against human A498 cells assessed as reduction in cell viability incubated for 72 hrs by MTT assay; assay type: functional, cell-based; conditions: A498, 72 h
[12] = Antiproliferative activity against human A-293 cells assessed as reduction in cell viability measured for 48 hrs by MTT assay; assay type: toxicity, cell-based; conditions: A-293 (AD293) cells
MV4-11 [13] = assay: Cytotoxicity against human MV4-11 cells assessed as reduction in cell viability measured for 72 hrs by cellTiter-Glo assay; assay type: functional, cell-based; conditions: MV4-11, 72 h
[14] = target: Cyclin-dependent kinase 7 (Homo sapiens, UniProt P50613); assay: Inhibition of CDK7 (unknown origin)
Sequence of Cyclin-dependent kinase 7 (P50613 whole entry): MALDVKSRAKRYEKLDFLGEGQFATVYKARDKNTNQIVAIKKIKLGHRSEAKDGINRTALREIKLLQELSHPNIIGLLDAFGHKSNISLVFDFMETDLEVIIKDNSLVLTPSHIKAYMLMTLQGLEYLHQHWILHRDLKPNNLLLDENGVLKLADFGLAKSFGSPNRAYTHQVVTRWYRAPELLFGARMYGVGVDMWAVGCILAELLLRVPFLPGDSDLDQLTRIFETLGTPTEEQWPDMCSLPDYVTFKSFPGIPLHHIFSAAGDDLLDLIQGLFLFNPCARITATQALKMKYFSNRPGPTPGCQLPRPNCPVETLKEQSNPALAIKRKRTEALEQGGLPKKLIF

HCT-116 = assay: Antiproliferative activity against human HCT-116 cells assessed as reduction in cell viability incubated for 72 hrs by CCK-8 assay; assay type: functional, cell-based; conditions: HCT-116, 72 h
K562 = assay: Antiproliferative activity against human K562 cells assessed as reduction in cell viability incubated for 72 hrs by CCK-8 assay; assay type: functional, cell-based; conditions: K562, 72 h
MCF7 = assay: Antiproliferative activity against human MCF7 cells assessed as reduction in cell viability incubated for 72 hrs by MTT assay; assay type: functional, cell-based; conditions: MCF7, 72 h
[15] = Downregulation of RNAP2 phosphorylation at serine 2 residue in human MV4-11 cells; assay type: functional, cell-based
MV4-11 [16] = assay: Antiproliferative activity against human MV4-11 cells assessed as reduction in cell growth incubated for 48 hrs by MTT assay; assay type: functional, cell-based; conditions: MV4-11, 48 h
MOLM-13 [17] = assay: cells; conditions: Homo sapiens, MOLM-13, 96 h
MOLM-13 [18] = assay: Antiproliferative activity against human MOLM-13 cells assessed as reduction in cell viability incubated for 72 hrs by MTT assay; assay type: functional, cell-based; conditions: MOLM-13, 72 h
[19] = target: T2, Cyclin-dependent kinase 9
[20] = target: T2, Cyclin-dependent kinase 9; assay: Inhibition of CDK9 (unknown origin) at 100 nM relative to control
Histone deacetylase 1 = Histone deacetylase 1 (Homo sapiens, UniProt Q13547); assay: Inhibition of HDAC1 (unknown origin) by fluorescence based assay
Sequence of Histone deacetylase 1 (Q13547 whole entry): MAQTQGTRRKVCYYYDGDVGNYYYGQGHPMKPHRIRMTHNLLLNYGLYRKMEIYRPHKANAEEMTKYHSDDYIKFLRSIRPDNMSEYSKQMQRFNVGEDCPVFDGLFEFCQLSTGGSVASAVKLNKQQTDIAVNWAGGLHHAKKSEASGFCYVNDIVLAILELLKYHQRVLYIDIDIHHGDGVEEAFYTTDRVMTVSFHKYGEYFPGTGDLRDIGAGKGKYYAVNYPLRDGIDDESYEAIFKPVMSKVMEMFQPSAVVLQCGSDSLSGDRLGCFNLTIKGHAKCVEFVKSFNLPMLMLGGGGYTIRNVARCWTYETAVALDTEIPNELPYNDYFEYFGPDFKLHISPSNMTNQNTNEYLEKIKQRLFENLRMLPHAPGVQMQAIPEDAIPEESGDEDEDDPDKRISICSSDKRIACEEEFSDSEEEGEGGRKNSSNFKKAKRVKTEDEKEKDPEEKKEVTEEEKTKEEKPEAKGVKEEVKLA

CDK9/cyclin T1 [21] = target: T3, CDK9/cyclin T1; assay: Binding affinity to CDK9/cyclin T1 (unknown origin) assessed as inhibition constant; assay type: protein-complex assay
[22] = target: Receptor-type tyrosine-protein kinase FLT3 (Homo sapiens, UniProt P36888, ITD); assay: Binding affinity FLT3-ITD mutant (unknown origin) assessed as inhibition constant
CDK7/Cyclin H/MNAT1 = CDK7/Cyclin H/MNAT1 (Homo sapiens, UniProt P50613); assay: Inhibition of CDK7/CycH/MAT1 (unknown origin); assay type: protein-complex assay
Sequence of CDK7/Cyclin H/MNAT1 (P51946 whole entry): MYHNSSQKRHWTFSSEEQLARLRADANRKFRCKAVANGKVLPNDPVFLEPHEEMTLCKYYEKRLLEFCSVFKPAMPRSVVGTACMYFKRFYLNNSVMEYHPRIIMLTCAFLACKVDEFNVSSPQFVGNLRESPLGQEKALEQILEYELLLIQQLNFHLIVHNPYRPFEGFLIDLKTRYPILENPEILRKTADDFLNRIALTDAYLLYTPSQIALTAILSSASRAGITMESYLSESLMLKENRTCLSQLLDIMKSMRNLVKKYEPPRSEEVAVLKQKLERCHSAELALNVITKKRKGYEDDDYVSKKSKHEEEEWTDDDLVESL
Sequence of CDK7/Cyclin H/MNAT1 (P50613 whole entry): as the sequence (P50613 whole entry) above
Sequence of CDK7/Cyclin H/MNAT1 (P51948 whole entry, further chain): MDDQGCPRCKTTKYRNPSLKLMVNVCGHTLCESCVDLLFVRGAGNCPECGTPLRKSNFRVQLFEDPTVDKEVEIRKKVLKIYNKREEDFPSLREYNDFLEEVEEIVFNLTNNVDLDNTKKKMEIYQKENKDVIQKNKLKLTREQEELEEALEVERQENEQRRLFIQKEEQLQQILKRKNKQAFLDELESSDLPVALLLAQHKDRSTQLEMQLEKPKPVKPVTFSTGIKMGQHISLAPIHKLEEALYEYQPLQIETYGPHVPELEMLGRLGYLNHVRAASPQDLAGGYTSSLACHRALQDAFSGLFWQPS

[23] = target: Cyclin-dependent kinase 2/cyclin E1 (Homo sapiens, UniProt P24941); assay: Inhibition of CDK2/cyclin E1 (unknown origin); assay type: protein-complex assay

Structure (SMILES): CCC(CC)c1cc(N[C@H]2CC[C@H](N)C2)n2nccc2n1 [ISTISOCICLIB]
GR50 (MV4-11 [1]): 0.288 µM

Structure (SMILES): O=C1CCC(N2C(=O)c3cccc(OCCCCCOc4ccc(CC(=O)Nc5cc(C6CCC6)[nH]n5)cc4)c3C2=O)C(=O)N1 (stereo unspecified)
Emax [2]: 56% | Emax [3]: 65%

Structure (SMILES): Cn1ncc(-c2nc(NC3CCC(N)CC3)ncc2Cl)c1CC1CC1 (stereo unspecified)
Kd [6]: 4 nM | Kd [7]: 5.3 nM

Structure (SMILES): COc1cc(O)c2c(=O)cc(-c3ccc(N4CCN(C)CC4)cc3)oc2c1N1CCNCC1
IC50 [8]: 1180 nM

Structure (SMILES): COc1ccc(C(=O)Nc2cc(-c3ccnc(N4CCC(O)CC4)c3)ccn2)cc1
IC50 (L02): > 800 nM | IC50 at 72 h [10]: > 800 nM

Structure (SMILES): COCCN[C@H]1CC[C@H](Nc2cc(-c3csc(NCC4(C#N)CCOCC4)n3)c(Cl)cn2)CC1
IC50 (MV4-11 [13]): 12 nM | IC50 [14]: 172 nM | IC50 [5]: 2 nM

Structure (SMILES): CC(=O)N[C@H]1CCC[C@@H](C(=O)Nc2cc(-c3cnn4c3CC(C)(C)C4)c(Cl)cn2)C1
IC50 [15]: 13 nM | IC50 (MV4-11 [16]): 13.7 nM

Structure (SMILES): COc1cc(F)ccc1-c1ncnc(Nc2cccc(C[S@](C)(=N)=O)c2)n1 [ATUVECICLIB]
IC50 (MOLM-13 [17]): 310 nM

Structure (SMILES): COc1cc(F)ccc1-c1cc(Nc2cc(C[S@](C)(=N)=O)ccn2)ncc1F
IC50 (MOLM-13 [18]): 29 nM

Structure (SMILES): Nc1ccccc1NC(=O)c1ccc(NC(=O)c2n[nH]cc2NC(=O)c2c(Cl)cccc2Cl)cc1
inhibition [20]: 98.3% | IC50 (Histone deacetylase 1): 98 nM

Structure (SMILES): O=c1cc(-c2cccc(O)c2)oc2c1ccc1occc12
IC50 (CDK7/Cyclin H/MNAT1): 93 nM | IC50 [23]: > 20000 nM

Second part, led by results:

IC50 [4]: 574 nM | IC50 [5]: 16 nM
Structure (SMILES): COc1ccccc1-c1cccc(Nc2cccc(N3CCCNCC3)c2)n1

IC50 (OCI-AML-3): 220 nM
Structure (SMILES): Cc1ccc([N+](=O)[O-])cc1S(=O)(=O)N(C)/N=C/c1cnc2ccc(Br)cn12

IC50 [5]: 2.23 nM
Structure (SMILES): N[C@H]1CCN(c2c3c(nc4ccc(-c5ccnc(NC(=O)C6CC6)n5)cc24)CCCC3)C1

IC5 [9]: 12 nM
Structure (SMILES): CN(C)C(=O)c1cc2cnc(Nc3ccc(S(N)(=O)=O)cc3)nc2n1C1CCCC1

IC50 (CDK9/cyclin T1 [11]): 196 nM
Structure (SMILES): CN(C)C/C=C\C(=O)Nc1ccc(C(=O)N[C@H]2CC[C@H](Nc3cc(-c4cccc(NCc5cccc(F)c5)n4)c(Cl)cn3)CC2)cc1
IC50 (A498): < 700 nM | IC50 at 48 h [12]: 3230 nM

IC50 (HCT-116): 7000 nM | IC50 (K562): 7000 nM | IC50 (MCF7): 7000 nM
Structure (SMILES): c1ccc(CNc2c(-c3ccncc3)nc3cnccn23)cc1

IC50 (HCT-116): 11600 nM | IC50 (K562): 11600 nM | IC50 (MCF7): 11600 nM
Structure (SMILES): COc1ccc(Nc2c(-c3ccoc3)nc3cnccn23)cc1

IC50 [5]: < 0.514 nM
Structure (SMILES): COC[C@H](C)N[C@H]1CC[C@H](Nc2cc(-c3cccc(NCC4(C#N)CCOCC4)n3)c(Cl)cn2)CC1

IC50 [9]: 2.2 nM | IC50 [19]: 1.9 nM
Structure (SMILES): CC(C)c1c2cc(-c3ccnc(Nc4ccc5c(N6CCN(C)CC6)ncnc5c4)n3)ccc2nn1C

IC50 [5]: < 0.4 nM
Structure (SMILES): N[C@H]1CC[C@H](Nc2cc(-c3cccc(NCc4cccc(F)c4)n3)c(Cl)cn2)CC1
IC50 (A498): 57 nM | IC50 at 48 h [12]: 76 nM

Ki (CDK9/cyclin T1 [21]): 8 nM | Ki [22]: 13 nM
Structure (SMILES): Cc1cnc(NC2CCC(N)CC2)nc1-c1cnc2ccc(-c3ccccc3)cn12 (stereo unspecified)

Kd [6]: 5.4 nM | Kd [7]: 9.8 nM
Structure (SMILES): Cn1ncc(-c2nc(NC3CCC(N)CC3)ncc2F)c1CC1CC1 (stereo unspecified)

IC50 [8]: 2440 nM
Structure (SMILES): COc1ccccc1-c1cc(Nc2cccc(CS(N)(=O)=O)c2)ncn1

IC50 [5]: 184 nM
Structure (SMILES): COc1ccccc1-c1ccnc(Nc2ccc3c(c2)CC(=O)C(C(C)=O)C3C)n1 (stereo unspecified)

IC5 [5]: 6.7 nM
Structure (SMILES): CCN1C(=O)COc2c(CN3CCOCC3)cc(Nc3nccc(-c4cccnc4)n3)cc21
